According to US20260167622A1, “PAN-KRAS DEGRADING AGENT, AND PREPARATION METHOD THEREFOR AND USE THEREOF” (LEADINGTAC PHARMACEUTICAL (SHAOXING) CO., LTD., priority 2022, published 2026):
pIC50: −log10 of the molar value.

Columns and labels:
Assay type in all cases: cell-based
[1] = system: KRAS G12C mutant human non-small cell lung cancer cell NCI-H358; assay: 3D cell proliferation inhibition assay, NCI-H358; conditions: NCI-H358, 168 h, 3D culture, 7 days, CTG
Procedure, shortened: (§1)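 Cells were seeded in low-adsorption 96-well plates at 5×10^2 cells/well (MKN1 at 1×10^3) with compounds at final 10000-0.026 nM, 0.2% DMSO, and grown 7 days at 37° C. CTG luminescence gave inhibition relative to DMSO and medium-only controls, and IC50 came from a log-concentration curve fit.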

[2] = system: KRAS G12D mutant human lung cancer cell A427; assay: 3D cell proliferation inhibition assay, A427; conditions: A-427, 168 h, 3D culture, 7 days, CTG
Description: Test Example 6: 3D Cell Proliferation Inhibition Assay
The inhibitory effects of the compounds on 3D cell proliferation were investigated on KRAS G12C mutant human non-small cell lung cancer cell NCI-H358, KRAS G12D mutant human lung cancer cell A427, KRAS G12D mutant human gastric cancer cell AGS, KRAS G12D mutant human metastatic pancreatic cancer cell AsPc-1, KRAS G12V mutant human lung squamous carcinoma cell SW900, KRAS G12V mutant human colorectal cancer cell SW620, KRAS G13D mutant human colorectal cancer epithelial cell DLD-1, and KRAS WT human gastric cancer cell MKN1. The specific procedures were as follows:
10 μL of each compound solution diluted in a gradient was added to corresponding wells of a 96-well low-adsorption microplate (PerkinElmer), so that the final concentrations of the test compounds in the reaction system were in a range of 10000-0.026 nM. The final concentration of DMSO was 0.2%. Then 90 µL of cells were correspondingly seeded into each well to achieve a cell density of 5×10^2 cells/well (the cell density of SW900 was 5×10^3 cells/well, and the cell density of MKN1 was 1×10^3 cells/well). In addition to test wells for the test compounds, both a DMSO control well and a medium control well were set, with the DMSO control well containing DMSO and cells and the medium well containing only a medium. After the sample loading, the 96-well low-adsorption microplate was incubated in an incubator at 37° C. with […] for 7 days. After 7 days, the microplate was taken out, and 100 μL of CTG reagent (Promega) was added to each well. The plate was incubated at room temperature for 60 m and read on a microplate reader EnVision by the chemiluminescence program. The inhibition rates of the compounds at each concentration were calculated using the formula for the percentage inhibition of cell proliferation: inhibition rate 00=(mean value of DMSO control group−single concentration reading value of compound)/(mean value of DMSO control group−mean value of medium control group)×100. Then non-linear curve fillings for logarithmic concentration-inhibition rate were performed by GraphPad Prism 8, and the IC50 values of the compounds were obtained (Table 6).

[3] = molecular target: T1, KRAS G12V protein in SW900 cells (Homo sapiens, UniProt P01116, G12V); assay: KRAS degradation assay (Western Blot) in SW900 cells; conditions: 24 h
T1 construct: endogenous in cells; host or cells: SW900
Procedure, shortened: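 DC50 and Dmax were fitted from KRAS band intensity, corrected to β-actin and expressed against untreated control, after Western blotting of 5 μg lysate protein. Cells were exposed for 24 h at 37 °C to 0.03-3000 nM compound (final) with 0.25% DMSO.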

[4] = system: KRAS G13D mutant human colorectal cancer epithelial cell DLD-1; assay: 3D cell proliferation inhibition assay, DLD-1; conditions: DLD-1, 168 h, 3D culture, 7 days, CTG
Procedure, shortened: as §1

[5] = system: KRAS G12D mutant human gastric cancer cell AGS; assay: 3D cell proliferation inhibition assay, AGS; conditions: 168 h, 3D culture, 7 days, CTG
Procedure, shortened: as §1

[6] = system: KRAS G12D mutant human metastatic pancreatic cancer cell AsPc-1; assay: 3D cell proliferation inhibition assay, AsPc-1; conditions: ASPC1, 168 h, 3D culture, 7 days, CTG
Procedure, shortened: as §1

[7] = system: KRAS G12V mutant human colorectal cancer cell SW620; assay: 3D cell proliferation inhibition assay, SW620; conditions: SW-620, 168 h, 3D culture, 7 days, CTG
Procedure, shortened: as §1

[8] = system: KRAS WT human gastric cancer cell MKN1; assay: 3D cell proliferation inhibition assay, MKN1; conditions: MKN-1, 168 h, 3D culture, 7 days, CTG
Procedure, shortened: as §1

[9] = system: KRAS G12V mutant human lung squamous carcinoma cell SW900; assay: 3D cell proliferation inhibition assay, SW900; conditions: SW900, 168 h, 3D culture, 7 days, CTG

T1 sequence (P01116 1-188 isoform P01116-2 G12V): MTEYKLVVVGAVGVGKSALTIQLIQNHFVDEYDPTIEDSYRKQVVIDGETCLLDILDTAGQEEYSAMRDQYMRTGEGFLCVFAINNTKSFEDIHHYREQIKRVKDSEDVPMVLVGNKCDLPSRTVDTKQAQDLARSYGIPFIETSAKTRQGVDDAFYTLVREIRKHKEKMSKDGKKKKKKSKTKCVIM

Structure (SMILES)	pIC50 [1]	pIC50 [2]	DC50 [3] [nM]	Dmax [3] [%]	pIC50 [4]	pIC50 [5]	pIC50 [6]	pIC50 [7]	pIC50 [8]	pIC50 [9]
CCc1c(F)ccc2cc(O)cc(-c3ncc4c(N5CCC[C@@](C)(O)C5)nc(OCC5(CN6CCN(CC7CCC8(CC7)CCN(C(=O)c7ccc(C)c(N9CCC(=O)NC9=O)c7)CC8)CC6)CC5)nc4c3F)c12 [Example 19, (R)-1-(5-(9-((4-((1-(((7-(8-ethyl-7-fluoro-3-hydroxynaphthalen-1-yl)-8-fluoro-4-(3-hydroxy-3-methylpiperidin-1-yl)pyrido[4,3-d]pyrimidin-2-yl)oxy)methyl)cyclopropyl)methyl)piperazin-1-yl)methyl)-3-azaspiro[5.5]undecane-3-carbonyl)-2-methylphenyl)dihydropyrimidine-2,4(1H,3H)-dione]	≥ 7.30	6.30 to 7.00	≤ 50	80 to 100	≥ 7.30	≥ 7.30	≥ 7.30	9.09	≥ 7.30	≥ 7.30
CCc1cccc2cc(O)cc(-c3ncc4c(N5CCC[C@@](C)(O)C5)nc(OCC5(CN6CCN(CC7CCC8(CC7)CCN(C(=O)c7ccc(C)c(N9CCC(=O)NC9=O)c7)CC8)CC6)CC5)nc4c3F)c12 [Example 26, (R)-1-(5-(9-((4-((1-(((7-(8-ethyl-3-hydroxynaphthalen-1-yl)-8-fluoro-4-(3-hydroxy-3-methylpiperidin-1-yl)pyrido[4,3-d]pyrimidin-2-yl)oxy)methyl)cyclopropyl)methyl)piperazin-1-yl)methyl)-3-azaspiro[5.5]undecane-3-carbonyl)-2-methylphenyl)dihydropyrimidine-2,4(1H,3H)-dione]	6.30 to 7.00	6.30 to 7.00	≤ 50	80 to 100	≥ 7.30	≥ 7.30	≥ 7.30	8.68	≥ 7.30	≥ 7.30
C#Cc1c(F)ccc2cc(O)cc(-c3ccc4c(N5CCC[C@@](C)(O)C5)nc(OCC5(CN6CCN(CC7CCC8(CC7)CCN(C(=O)c7ccc(Cl)c(N9CCC(=O)NC9=O)c7)CC8)CC6)CC5)nc4c3F)c12 [Example 33, (R)-1-(2-chloro-5-(9-((4-((1-(((7-(8-ethynyl-7-fluoro-3-hydroxynaphthalen-1-yl)-8-fluoro-4-(3-hydroxy-3-methylpiperidin-1-yl)quinazolin-2-yl)oxy)methyl)cyclopropyl)methyl)piperazin-1-yl)methyl)-3-azaspiro[5.5]undecane-3-carbonyl)phenyl)dihydropyrimidine-2,4(1H,3H)-dione]	7.00 to 7.30	≥ 7.30	≤ 50	80 to 100	≥ 7.30	≥ 7.30	≥ 7.30	8.11	7.00 to 7.30	7.00 to 7.30

The next lines start with the values.

pIC50 [1]	pIC50 [2]	DC50 [3] [nM]	Dmax [3] [%]	pIC50 [4]	pIC50 [5]	pIC50 [6]	pIC50 [7]	pIC50 [8]	pIC50 [9]	Structure (SMILES)
6.30 to 7.00	6.30 to 7.00	≤ 50	80 to 100	≥ 7.30	≥ 7.30	≥ 7.30	8.61	≥ 7.30	≥ 7.30	CCc1cccc2cc(O)cc(-c3ncc4c(N5CCC[C@@](C)(O)C5)nc(OCC5(CN6CCN(CC7CCC8(CC7)CCN(C(=O)c7ccc(OC)c(N9CCC(=O)NC9=O)c7)CC8)CC6)CC5)nc4c3F)c12 [Example 25, (R)-1-(5-(9-((4-((1-(((7-(8-ethyl-3-hydroxynaphthalen-1-yl)-8-fluoro-4-(3-hydroxy-3-methylpiperidin-1-yl)pyrido[4,3-d]pyrimidin-2-yl)oxy)methyl)cyclopropyl)methyl)piperazin-1-yl)methyl)-3-azaspiro[5.5]undecane-3-carbonyl)-2-methoxyphenyl)dihydropyrimidine-2,4(1H,3H)-dione]
7.00 to 7.30	7.00 to 7.30	≤ 50	80 to 100	≥ 7.30	≥ 7.30	≥ 7.30	8.47	≥ 7.30	≥ 7.30	C#Cc1c(F)ccc2cc(O)cc(-c3ncc4c(N5CCCOCC5)nc(OCC5(CN6CCN(CC7CCC8(CC7)CCN(C(=O)c7ccc(C)c(N9CCC(=O)NC9=O)c7)CC8)CC6)CC5)nc4c3F)c12 [Example 36, 1-(5-(9-((4-((1-(((7-(8-ethynyl-7-fluoro-3-hydroxynaphthalen-1-yl)-8-fluoro-4-(1,4-oxazepan-4-yl)pyrido[4,3-d]pyrimidin-2-yl)oxy)methyl)cyclopropyl)methyl)piperazin-1-yl)methyl)-3-azaspiro[5.5]undecane-3-carbonyl)-2-methylphenyl)dihydropyrimidine-2,4(1H,3H)-dione]
6.30 to 7.00	7.00 to 7.30	≤ 50	80 to 100	≥ 7.30	≥ 7.30	≥ 7.30	–	7.00 to 7.30	≥ 7.30	C#Cc1c(F)ccc2cc(O)cc(-c3ncc4c(N5CCC[C@@H](O)C5)nc(OCC5(CN6CCN(CC7CCC8(CC7)CCN(C(=O)c7ccc(C)c(N9CCC(=O)NC9=O)c7)CC8)CC6)CC5)nc4c3F)c12 [Example 45, (R)-1-(5-(9-((4-((1-(((7-(8-ethynyl-7-fluoro-3-hydroxynaphthalen-1-yl)-8-fluoro-4-(3-hydroxypiperidin-1-yl)pyrido[4,3-d]pyrimidin-2-yl)oxy)methyl)cyclopropyl)methyl)piperazin-1-yl)methyl)-3-azaspiro[5.5]undecane-3-carbonyl)-2-methylphenyl)dihydropyrimidine-2,4(1H,3H)-dione]
